Molecules are shown by their SMILES.

This data set can be described thus: gradient 5% acetonitrile 3 min, to 50% in 2 min, to 85% in 15 min, held 3 min, 100 µL/min. The conditions noted are these: column: Zorbax Extend-C18 2.1 x 50 mm; eluents: water / acetonitrile, 0.1% formic acid. An outline of the steps: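 Data were gathered over 3 months by HPLC coupled to a quadrupole time-of-flight mass spectrometer, operated in positive and negative ionization mode. Mixtures of ~100 pure standards ran on a Zorbax Extend-C18 column (2.1 × 50 mm, 1.8 μm) at 100 μL/min, with water and acetonitrile each containing 0.1% formic acid and dead and dwell volumes of 40 μL and 900 μL. Retention time was read from adduct peaks picked by computer and checked manually.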
`COc1cccc(CNC2=NCCNC23CCN(S(=O)(=O)c2ccc(Cl)cc2)CC3)c1` showed an RP-LC retention time of 738 s. Next, `CC1CCc2nc(NC(=O)c3cc(Cl)sc3Cl)sc2C1` (stereo not given): 1170 s; `CCCN1CCn2cc(S(=O)(=O)Nc3ccc(F)cc3)cc2C1=O`: 750 s; `COc1ccc(CCNC(=O)CSc2nnc(NC(=O)CC(C)C)s2)cc1OC`: 700 s.

`COC(=O)c1cccc(Nc2c(-c3ccccc3)nc3cnccn23)c1` yielded an RP-LC retention time of 834 s.

Regarding `Cc1cccc(N(C)C(=O)Cc2c(C(=O)O)c(C)cn2C)c1`, the RP-LC retention time came out at 739 s.

`COc1ccc(CNC(=O)C2CCCN(c3nc4c(s3)c(C)nn4-c3ccc(Cl)cc3)C2)cc1` (stereo not given): the RP-LC retention time was determined as 1200 s.

Turning to `O=C(CSc1ccc(N2CCOCC2)nn1)Nc1ccc(Cl)cc1`, the RP-LC retention time stood at 725 s. Next, `Cc1ccc(-c2cc3c4nnc(CCC(=O)N5CCN(C(=O)c6ccco6)CC5)n4ccn3n2)cc1C`: 759 s; `Cc1ccc(C(=O)N2CC=C(C(=O)NC3CC3)CC2)cc1`: 847 s; `CCC(=O)Nc1ccc(C2(C(=O)NCC(C)C)CCCCC2)cc1`: 859 s. Next, `CCOc1ccc(C(=O)N2CCC3(C2)C(=O)Nc2ccccc23)cc1` (stereo not given): 725 s; `CCn1ccc(C(=O)N2CCCC2c2ccc(OC)cc2)n1` (stereo not given): 795 s. `CCOCC(=O)N1CCCCCNC(=O)[C@@H]2CCCC[C@@H]21` had an RP-LC retention time of 657 s. Next, `Cc1ccc(N2CCN(C(=O)c3ccc(CN4CCN(C(C)C)C(=O)C4=O)cc3)CC2)cc1`: 728 s; `CC(C)c1ccc(CNC(=O)c2cn3c(n2)CCCC3)cc1`: 675 s; `CCC(=O)N1CCC(COc2ccc(C(=O)NC(C)C)cc2)CC1`: 719 s. Next, `COCCCNC(=O)C1c2ccccc2C(=O)N(C2CCCCC2)C12CCCCC2` (stereo not given): 946 s; `CCN(CCCNC(=O)C1CCN(c2ncnc3c2oc2ccccc23)CC1)c1ccccc1`: 611 s.

In turn, `Cc1ccc(N2C(=O)C3N=NN(Cc4nc(-c5ccccc5C)no4)C3C2=O)cc1Cl` (stereo not given) registered an RP-LC retention time of 1140 s. Next, `CCCc1nc2cccnc2n1C1CCN(C(=O)Cc2cccs2)C1` (stereo not given): 612 s. In turn, `Cc1ccc(C)c(S(=O)(=O)N2CC=C(c3cn(C)c4ncccc34)CC2)c1` showed an RP-LC retention time of 1070 s. Next, `O=C(Nc1ccc2c(c1)OCO2)N1CCC(N2CCN(Cc3ccccc3)C2=O)CC1`: 787 s; `COc1ccc(OC)c(S(=O)(=O)N2CCc3nc(-c4ccccc4)[nH]c3C2)c1`: 536 s.

`COc1ccc(-c2noc(C3CC(=O)N(c4ccc(C)c(Cl)c4)C3)n2)c(OC)c1` (stereo not given): the RP-LC retention time stood at 982 s. Next, `CCc1nc(-c2csc(S(=O)(=O)N3CCC(C(=O)N4CCOCC4)CC3)c2)no1`: 796 s. Next, `Cc1ccc(CNC(=O)C(C)n2nc(C)c3nn(-c4ccccc4)c(-n4cccc4)c3c2=O)o1` (stereo not given): 987 s; `Cc1csc(-c2cc(S(=O)(=O)Nc3ccc(F)cc3Cl)cn2CC(=O)N2CCCC2)n1`: 944 s; `O=C(c1ccccc1N1C(=O)c2cccc3cccc(c23)C1=O)N1CCOCC1`: 692 s. Molecule `O=C(O)c1nnn(-c2cccc(Br)c2)c1C(F)(F)F` came in with an RP-LC retention time of 836 s.

The molecule `O=S(=O)(CCOc1ccc(F)cc1)Nc1ccc(N2CCOCC2)cc1` yielded an RP-LC retention time of 767 s. The molecule `COCCN1C(=O)c2ccccc2C(C(=O)NCCc2ccc(F)cc2)C12CCCC2` (stereo not given) gave an RP-LC retention time of 874 s. Next, `CCC1CCCCN1C(=O)CN1CCn2c1nc(C)c(C)c2=O` (stereo not given): 618 s; `COCCNC(=O)C1(C)CCC(=O)N1CCc1c[nH]c2ccccc12` (stereo not given): 653 s; `CCOc1ccc(NC(=O)N2CCC(c3nc(C(=O)N(C)C)c(C)o3)CC2)cc1`: 696 s. Next, `COCCCNC(=O)C1CCN(c2cnn(Cc3ccccc3)c(=O)c2)CC1`: 651 s; `CC(=O)OCC(=O)[C@@]12N=C(C)O[C@@H]1C[C@H]1[C@@H]3CCC4=CC(=O)C=C[C@]4(C)[C@H]3[C@@H](O)C[C@@]12C`: 862 s.

With `CCN1C(=O)c2cccnc2Sc2cc(NC(=O)COc3ccc(Cl)cc3)ccc21`, the RP-LC retention time turned out to be 927 s. Next, `COc1ccc(CNC(=O)c2nc(N3CCOCC3)c3ccccc3n2)cc1`: 662 s. Next, `CC1CCCN(c2nc(=O)n(CC(=O)Nc3ccc4c(c3)OCO4)c3ccccc23)C1` (stereo not given): 796 s; `O=C(Nc1cccc(N2CCCCC2=O)c1)c1ccc(F)c(F)c1`: 705 s. Next, `O=C(COc1ccc(Cl)cc1Cl)Nc1ccc2c(c1)N(C(=O)c1cccs1)CC2`: 1060 s; `Cc1ccc2oc(=O)n(Cc3noc(C(=O)NCC(C)c4ccccc4)n3)c2c1` (stereo not given): 992 s; `COC(=O)c1ccc(NC(=O)N2CCc3nc[nH]c3C2)cc1`: 591 s. `COc1ccc(-c2noc(C3CCCN3C(=O)c3cc(F)cc(F)c3)n2)cc1OC` (stereo not given) gave an RP-LC retention time of 937 s. Next, `Cc1ccc(SCC(=O)Nc2nc(-c3ccccc3)cs2)cc1`: 1100 s; `CCCc1cc(C2CCCN2C(=O)Nc2ccc(OC)c(OC)c2)no1` (stereo not given): 778 s; `CCS(=O)(=O)N1CC(=O)N(c2ccc(F)cc2)C(C)(C(=O)NCc2ccccc2)C1` (stereo not given): 778 s.

In turn, `COCCCNC(=O)CN1C(=O)C2CCCCN2c2ccc(C(=O)N(C)C)cc21` (stereo not given) showed an RP-LC retention time of 655 s. Next, `COc1ccc(OC)c(NC(=O)Nc2cc(F)c3nc(N4CCOCC4)ccc3c2)c1`: 863 s; `CC1(C(=O)NCc2ccc(F)cc2)CN(S(C)(=O)=O)CC(=O)N1c1cccc(Cl)c1` (stereo not given): 805 s.

Molecule `Cc1cc2[nH]c(C(=O)Nc3ccccc3F)c(CN3CCOCC3)c2s1` yielded an RP-LC retention time of 686 s. Turning to `Cc1ccc(-c2noc(Cc3nnc(-c4cc(C)cc(C)c4)o3)n2)cc1`, the RP-LC retention time came out at 1190 s.

For `COC(=O)c1ccc2c(=O)n(-c3ccc(Cl)cc3)c(N3CCN(c4ccccn4)CC3)nc2c1`, the RP-LC retention time was found to be 753 s. Next, `Cc1ccc(-n2nc(N3CCN(C(=O)c4ccc(Br)o4)CC3)ccc2=O)cc1`: 817 s; `CCSCCOC(=O)C1=C(C)NC2=C(C(=O)C(C(=O)OC)C(C)C2)C1c1cccc(OC)c1` (stereo not given): 968 s. Next, `CSc1ccccc1NC(=O)c1cnc(-c2ccc(C)cc2)nc1-c1ccncc1`: 973 s; `Cn1nc(N2CCC(NC(=O)C3CCCCC3)C2)ccc1=O` (stereo not given): 649 s. Next, `CCOc1ccc(C(=O)Nc2nc(-c3ccccc3)cs2)cc1Cl`: 1260 s; `COCCc1noc(-c2nc(-c3ccc(OC)c(OC)c3)no2)n1`: 892 s; `O=C(C1CCC1)N1CCCC(CN2CCOCC2)CC1` (stereo not given): 574 s. The molecule `COC(=O)C1=CN(CC(=O)NCc2ccc(Cl)cc2)S(=O)(=O)N=C1C` came in with an RP-LC retention time of 850 s. Next, `Cc1ccc(NC(=O)NCc2ccnc(N3CCSCC3)c2)c(C)c1`: 631 s. As to `CCC(=O)Nc1cnc(-c2ccc(F)cc2)nc1`, the RP-LC retention time turned out to be 794 s.

With `Cc1ccc(CNC(=O)C2(C)CCCN(C(=O)Nc3cccc(Br)c3)C2)cc1` (stereo not given), the RP-LC retention time was determined as 1070 s. Next, `O=C(NCc1csc(C2CCCN(C(=O)c3ccccc3)C2)n1)C1CCC1` (stereo not given): 712 s; `Cc1ccc(Nc2cc(N3CCC(C(=O)NCc4ccco4)CC3)ncn2)cc1`: 664 s; `CS(=O)(=O)N1CCC(C(=O)N2CCC3(CC2)OCCS3)CC1`: 625 s. In turn, `Cc1cnc(C)n1CC1CCN(C(=O)C2CCC2)C1` (stereo not given) came in with an RP-LC retention time of 565 s.

In the case of `CCN(c1ccccc1)S(=O)(=O)c1ccc(C(=O)Nc2cc(C)nn2C(C)C)cc1`, the RP-LC retention time was 858 s.

`O=C(c1ccc(N2CCCC2)nn1)N1CCN(c2ncccn2)CC1`: the RP-LC retention time was determined as 548 s. Next, `O=C(CCC1CCCC1)Nc1nc(-c2ccc(Cl)cc2)cs1`: 1290 s.

In the case of `CCC(C)NC(=O)N1CCN(c2cc(-c3ccc(OC)c(OC)c3)ncn2)CC1` (stereo not given), the RP-LC retention time was 621 s. Next, `CCCNC(=O)C1CCN(c2ccc(SCC(=O)Nc3cccc(F)c3)nn2)CC1`: 645 s; `Cn1ccc2cc(S(=O)(=O)N3CCCC(C(=O)NC4CCCCCCC4)C3)ccc21` (stereo not given): 1080 s; `CCc1ccc(C2=C(C)C(N3CCCN(C(=O)c4ccccn4)CC3)=NS2(=O)=O)cc1`: 788 s. Next, `CC(=O)N1CCc2cc(N3CC(C(=O)Nc4cc(C)ccc4C)CC3=O)ccc21` (stereo not given): 717 s.

In turn, `CN(C)C(=O)c1csc(S(=O)(=O)N2CCC(C(=O)NC3CCCCC3)CC2)c1` had an RP-LC retention time of 720 s.

Consider `Cc1noc(-c2ccc(OC3CN(C(=O)NC(C)C)C3)cc2)n1`, for which the RP-LC retention time came out at 730 s. Next, `CCc1cccc(NC(=O)Cn2ccc3ccc(-c4nnc(C)o4)cc32)c1`: 798 s.

These data come from the METLIN SMRT retention time set (Domingo-Almenara et al. 2019).
